Assays:
[1] = target: Cytochrome P450 3A4 (Homo sapiens, UniProt P08684); conditions: bti-tn-5b1-4; also: in other assays of this panel Not Active means under 50% inhibition at 10 µM
[2] = target: Epidermal growth factor receptor (Homo sapiens, UniProt P00533); assay: DRUGMATRIX: Protein Tyrosine Kinase, EGF Receptor enzyme inhibition (substrate: Poly(Glu:Tyr)); type: cell-based, Insect cells; conditions: insect cells; Not Active = under 50% inhibition at 10 µM
[3] = target: Melanocortin receptor 4 (Homo sapiens, UniProt P32245); type: cell membranes, HEK293, Membrane; conditions: hek293; also: in other assays of this panel Not Active means under 50% inhibition at 10 µM
Sequence of Melanocortin receptor 4 (P32245 whole entry): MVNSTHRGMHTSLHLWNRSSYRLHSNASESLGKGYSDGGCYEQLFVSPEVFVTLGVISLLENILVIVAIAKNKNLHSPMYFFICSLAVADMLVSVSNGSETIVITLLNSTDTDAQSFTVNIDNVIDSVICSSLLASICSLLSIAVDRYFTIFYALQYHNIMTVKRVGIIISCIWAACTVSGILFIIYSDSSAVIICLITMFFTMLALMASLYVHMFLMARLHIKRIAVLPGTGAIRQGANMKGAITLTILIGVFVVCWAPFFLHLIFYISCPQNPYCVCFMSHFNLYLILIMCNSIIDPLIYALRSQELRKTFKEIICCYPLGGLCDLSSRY

[4] = target: T1, 3-hydroxy-3-methylglutaryl-coenzyme A reductase (Homo sapiens, UniProt P04035); design: species or system Escherichia coli;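 also: enzyme inhibition assay of HMG-CoA reductase using radiolabeled [14C]HMG-CoA as substrate; in other assays of this panel Not Active means under 50% inhibition at 10 µM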
T1 sequence (P04035 whole entry): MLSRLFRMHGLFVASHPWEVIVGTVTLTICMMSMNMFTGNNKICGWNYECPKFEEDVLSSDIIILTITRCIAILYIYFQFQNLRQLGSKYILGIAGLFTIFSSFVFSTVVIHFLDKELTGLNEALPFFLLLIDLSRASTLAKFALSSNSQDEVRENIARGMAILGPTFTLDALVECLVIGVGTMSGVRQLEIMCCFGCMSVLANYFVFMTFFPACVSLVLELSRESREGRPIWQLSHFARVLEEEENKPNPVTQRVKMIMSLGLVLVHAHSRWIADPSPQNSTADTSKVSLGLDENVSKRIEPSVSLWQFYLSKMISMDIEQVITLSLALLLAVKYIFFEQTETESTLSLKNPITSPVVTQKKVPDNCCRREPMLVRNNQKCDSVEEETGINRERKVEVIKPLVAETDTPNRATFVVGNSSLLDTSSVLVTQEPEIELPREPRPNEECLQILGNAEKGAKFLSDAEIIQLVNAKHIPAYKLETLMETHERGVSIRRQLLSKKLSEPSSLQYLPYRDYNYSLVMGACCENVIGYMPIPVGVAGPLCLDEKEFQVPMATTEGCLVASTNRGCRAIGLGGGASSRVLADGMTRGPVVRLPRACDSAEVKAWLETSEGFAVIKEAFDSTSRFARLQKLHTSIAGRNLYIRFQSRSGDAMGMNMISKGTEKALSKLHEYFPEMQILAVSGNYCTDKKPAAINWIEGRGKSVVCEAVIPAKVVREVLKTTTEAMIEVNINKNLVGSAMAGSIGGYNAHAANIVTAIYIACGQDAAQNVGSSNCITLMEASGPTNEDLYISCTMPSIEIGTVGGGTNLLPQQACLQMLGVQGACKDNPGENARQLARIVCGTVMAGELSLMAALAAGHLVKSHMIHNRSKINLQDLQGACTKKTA

[5] = target: T2, Calcitonin receptor (Homo sapiens, UniProt P30988); type: cell membranes, Membrane; conditions: t47d; also: in other assays of this panel Not Active means under 50% inhibition at 10 µM
T2 sequence (P30988 whole entry): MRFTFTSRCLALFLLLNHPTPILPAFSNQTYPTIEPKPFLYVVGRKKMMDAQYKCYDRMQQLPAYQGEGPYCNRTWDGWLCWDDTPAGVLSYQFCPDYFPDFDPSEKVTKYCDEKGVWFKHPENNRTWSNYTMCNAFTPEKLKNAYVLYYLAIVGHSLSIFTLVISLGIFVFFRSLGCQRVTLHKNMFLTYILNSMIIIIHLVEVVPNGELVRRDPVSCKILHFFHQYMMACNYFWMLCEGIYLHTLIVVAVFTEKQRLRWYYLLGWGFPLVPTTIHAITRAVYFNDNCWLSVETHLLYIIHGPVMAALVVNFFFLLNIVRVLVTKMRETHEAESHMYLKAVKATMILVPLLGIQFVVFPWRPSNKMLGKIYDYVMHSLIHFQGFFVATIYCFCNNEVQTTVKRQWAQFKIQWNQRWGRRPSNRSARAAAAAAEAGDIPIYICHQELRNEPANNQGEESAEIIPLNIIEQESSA

[6] = target: T3, Nitric oxide synthase, inducible (Mus musculus, UniProt P29477); design: species or system Escherichia coli
T3 sequence (P29477 whole entry): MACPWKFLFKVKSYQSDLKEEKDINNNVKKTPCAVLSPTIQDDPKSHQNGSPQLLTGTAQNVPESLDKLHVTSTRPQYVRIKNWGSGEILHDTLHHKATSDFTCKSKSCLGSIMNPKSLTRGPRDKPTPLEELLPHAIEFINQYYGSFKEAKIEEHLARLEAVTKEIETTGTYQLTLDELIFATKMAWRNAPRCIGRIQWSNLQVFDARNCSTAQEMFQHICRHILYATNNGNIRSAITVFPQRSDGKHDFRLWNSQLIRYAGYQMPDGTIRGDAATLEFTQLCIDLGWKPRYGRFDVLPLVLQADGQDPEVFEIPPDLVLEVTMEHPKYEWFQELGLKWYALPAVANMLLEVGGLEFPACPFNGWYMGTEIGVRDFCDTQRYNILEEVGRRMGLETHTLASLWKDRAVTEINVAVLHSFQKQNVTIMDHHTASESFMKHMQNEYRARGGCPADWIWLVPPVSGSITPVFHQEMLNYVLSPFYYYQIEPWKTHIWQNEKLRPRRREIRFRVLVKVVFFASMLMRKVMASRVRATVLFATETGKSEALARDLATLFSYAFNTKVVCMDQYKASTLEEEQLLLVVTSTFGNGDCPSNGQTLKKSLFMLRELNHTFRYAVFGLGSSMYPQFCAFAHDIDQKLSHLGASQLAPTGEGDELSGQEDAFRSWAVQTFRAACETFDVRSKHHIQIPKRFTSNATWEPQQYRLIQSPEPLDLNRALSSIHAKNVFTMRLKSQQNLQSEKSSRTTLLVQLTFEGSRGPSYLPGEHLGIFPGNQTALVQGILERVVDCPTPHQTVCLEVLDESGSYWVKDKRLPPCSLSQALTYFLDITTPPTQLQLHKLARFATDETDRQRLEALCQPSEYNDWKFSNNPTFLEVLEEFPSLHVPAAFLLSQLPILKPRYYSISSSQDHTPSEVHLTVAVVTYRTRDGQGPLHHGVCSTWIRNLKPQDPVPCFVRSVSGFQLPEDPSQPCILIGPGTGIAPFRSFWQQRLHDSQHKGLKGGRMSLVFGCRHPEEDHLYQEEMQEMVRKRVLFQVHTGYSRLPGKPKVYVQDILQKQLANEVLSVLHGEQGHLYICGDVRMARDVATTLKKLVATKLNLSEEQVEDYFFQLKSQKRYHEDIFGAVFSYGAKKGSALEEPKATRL

[7] = DRUGMATRIX: Glutamate, Kainate radioligand binding (ligand: [3H] Kainic acid); type: cell membranes, Rattus norvegicus, Wistar, Brain, Membrane; conditions: Not Active = under 50% inhibition at 10 µM
[8] = target: Cytochrome P450 2C9 (Homo sapiens, UniProt P11712); conditions: bti-tn-5b1-4; also: in other assays of this panel Not Active means under 50% inhibition at 10 µM
Sequence of Cytochrome P450 2C9 (P11712 whole entry): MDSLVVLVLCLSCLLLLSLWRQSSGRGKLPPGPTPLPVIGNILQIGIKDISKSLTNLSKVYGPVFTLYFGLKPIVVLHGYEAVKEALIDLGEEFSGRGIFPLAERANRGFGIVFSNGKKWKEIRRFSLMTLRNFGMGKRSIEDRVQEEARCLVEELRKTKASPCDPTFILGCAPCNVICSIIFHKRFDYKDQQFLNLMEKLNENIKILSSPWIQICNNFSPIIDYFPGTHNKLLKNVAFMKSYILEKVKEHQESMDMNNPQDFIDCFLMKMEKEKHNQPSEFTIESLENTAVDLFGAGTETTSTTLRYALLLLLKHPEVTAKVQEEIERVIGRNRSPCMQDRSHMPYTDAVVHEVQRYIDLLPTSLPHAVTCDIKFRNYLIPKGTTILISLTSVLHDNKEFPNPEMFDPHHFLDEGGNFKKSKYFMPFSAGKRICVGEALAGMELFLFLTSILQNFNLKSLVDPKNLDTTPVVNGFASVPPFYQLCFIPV

Sequence of Cytochrome P450 3A4 (P08684 whole entry): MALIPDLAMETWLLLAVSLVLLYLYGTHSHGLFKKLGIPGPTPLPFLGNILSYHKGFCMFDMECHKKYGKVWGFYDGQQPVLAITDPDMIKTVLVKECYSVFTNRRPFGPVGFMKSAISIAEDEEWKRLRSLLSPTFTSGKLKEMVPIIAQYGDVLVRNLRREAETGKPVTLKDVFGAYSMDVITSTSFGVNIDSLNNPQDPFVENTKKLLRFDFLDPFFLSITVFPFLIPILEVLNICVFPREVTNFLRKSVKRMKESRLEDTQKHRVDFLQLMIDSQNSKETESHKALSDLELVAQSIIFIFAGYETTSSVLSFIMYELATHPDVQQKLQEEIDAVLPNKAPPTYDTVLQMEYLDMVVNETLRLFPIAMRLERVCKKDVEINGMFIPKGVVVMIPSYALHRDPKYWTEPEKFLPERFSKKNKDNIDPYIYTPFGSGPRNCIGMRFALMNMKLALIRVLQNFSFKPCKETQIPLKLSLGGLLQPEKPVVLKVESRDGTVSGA
Sequence of Epidermal growth factor receptor (P00533 whole entry): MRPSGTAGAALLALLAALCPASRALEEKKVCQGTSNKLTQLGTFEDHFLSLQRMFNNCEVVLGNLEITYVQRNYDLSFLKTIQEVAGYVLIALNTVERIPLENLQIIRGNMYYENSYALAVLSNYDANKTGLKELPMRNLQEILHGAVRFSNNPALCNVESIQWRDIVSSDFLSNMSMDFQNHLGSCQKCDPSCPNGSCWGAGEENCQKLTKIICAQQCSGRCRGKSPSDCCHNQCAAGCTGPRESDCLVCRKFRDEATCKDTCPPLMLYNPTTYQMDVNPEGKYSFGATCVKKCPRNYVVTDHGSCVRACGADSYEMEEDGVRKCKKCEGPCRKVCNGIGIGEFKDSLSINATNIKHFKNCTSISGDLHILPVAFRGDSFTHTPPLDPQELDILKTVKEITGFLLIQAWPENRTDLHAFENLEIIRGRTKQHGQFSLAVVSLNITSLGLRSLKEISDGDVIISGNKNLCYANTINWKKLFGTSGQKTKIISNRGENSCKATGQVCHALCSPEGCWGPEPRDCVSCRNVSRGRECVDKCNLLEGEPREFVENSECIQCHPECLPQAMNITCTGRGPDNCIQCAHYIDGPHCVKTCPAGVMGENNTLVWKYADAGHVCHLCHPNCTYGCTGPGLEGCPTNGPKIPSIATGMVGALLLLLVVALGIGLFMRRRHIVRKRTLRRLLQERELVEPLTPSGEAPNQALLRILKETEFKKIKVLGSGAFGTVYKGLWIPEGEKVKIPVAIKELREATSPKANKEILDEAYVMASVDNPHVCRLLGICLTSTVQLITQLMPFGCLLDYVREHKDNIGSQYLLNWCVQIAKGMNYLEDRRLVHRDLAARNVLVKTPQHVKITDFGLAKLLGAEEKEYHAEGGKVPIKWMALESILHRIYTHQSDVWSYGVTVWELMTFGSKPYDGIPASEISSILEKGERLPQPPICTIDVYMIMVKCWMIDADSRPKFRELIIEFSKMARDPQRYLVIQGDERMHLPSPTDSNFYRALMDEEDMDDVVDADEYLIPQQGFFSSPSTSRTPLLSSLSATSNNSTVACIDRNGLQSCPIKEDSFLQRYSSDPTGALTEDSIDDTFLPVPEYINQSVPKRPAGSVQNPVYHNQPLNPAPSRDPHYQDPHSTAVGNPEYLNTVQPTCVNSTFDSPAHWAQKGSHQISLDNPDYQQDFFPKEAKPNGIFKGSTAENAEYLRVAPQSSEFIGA

O=C(c1ccccc1C(F)(F)F)N1CCC(Cc2ccccc2)CC1
Not Active: IC50 [1] | Ki [1] | IC50 [2] | IC50 [3] | IC50 [4] | IC50 [5] | IC50 [6] | IC50 [7] | Ki [7]

NCCCC(O)(P(=O)(O)O)P(=O)(O)O [ALENDRONIC ACID]
Not Active: IC50 [2] | IC50 [3] | IC50 [4] | IC50 [5] | IC50 [6] | IC50 [7] | Ki [7]

Cn1c(=O)c2[nH]cnc2n(C)c1=O.Cn1c(=O)c2[nH]cnc2n(C)c1=O.NCCN [AMINOPHYLLINE]
Not Active: IC50 [1] | Ki [1] | IC50 [2] | IC50 [3] | IC50 [4] | IC50 [5] | IC50 [6] | IC50 [7] | Ki [7]

CC1(C)S[C@@H]2[C@H](NC(=O)[C@H](N)c3ccccc3)C(=O)N2[C@H]1C(=O)O [AMPICILLIN]
Not Active: IC50 [1] | Ki [1] | IC50 [2] | IC50 [3] | IC50 [4] | IC50 [5] | IC50 [6] | IC50 [7] | Ki [7]

CN1[C@@H]2CC[C@H]1C[C@@H](OC(=O)C(CO)c1ccccc1)C2 (stereo not given in full) [ATROPINE]
Not Active: IC50 [2] | IC50 [3] | IC50 [4] | IC50 [5] | IC50 [6] | IC50 [7] | Ki [7]

CC(=O)Oc1ccc(C(c2ccc(OC(C)=O)cc2)c2ccccn2)cc1 [BISACODYL]
Not Active: IC50 [1] | Ki [1] | IC50 [2] | IC50 [3] | IC50 [4] | IC50 [5] | IC50 [6] | IC50 [7] | Ki [7]

C[C@@H]1C[C@H]2[C@@H]3CCC4=CC(=O)C=C[C@]4(C)[C@@]3(F)[C@@H](O)C[C@]2(C)[C@@]1(O)C(=O)CO [DEXAMETHASONE]
Not Active: IC50 [2] | IC50 [3] | IC50 [4] | IC50 [5] | IC50 [6] | IC50 [7] | Ki [7]

COc1cc([C@@H]2c3cc4c(cc3[C@@H](O[C@@H]3O[C@@H]5CO[C@@H](C)O[C@H]5[C@H](O)[C@H]3O)[C@H]3COC(=O)[C@H]23)OCO4)cc(OC)c1O [ETOPOSIDE]
Not Active: IC50 [2] | IC50 [3] | IC50 [4] | IC50 [5] | IC50 [6] | IC50 [7] | Ki [7]

CC(C)(C)NC(=O)[C@H]1CC[C@H]2[C@@H]3CC[C@H]4NC(=O)C=C[C@]4(C)[C@H]3CC[C@]12C [FINASTERIDE]
Not Active: IC50 [1] | Ki [1] | IC50 [2] | IC50 [3] | IC50 [4] | IC50 [5] | IC50 [6] | IC50 [7] | Ki [7]

COc1ccc2c3c1O[C@H]1C[C@@H](O)C=C[C@@]31CCN(C)C2 [GALANTAMINE]
Not Active: IC50 [2] | IC50 [3] | IC50 [4] | IC50 [5] | IC50 [6] | IC50 [7] | Ki [7]

CC(C)=CCC/C(C)=C/CO [GERANIOL]
Not Active: IC50 [2] | IC50 [3] | IC50 [4] | IC50 [5] | IC50 [6] | IC50 [7] | Ki [7]

CC(=O)[C@@]1(O)CC[C@H]2[C@@H]3CCC4=CC(=O)CC[C@]4(C)[C@H]3CC[C@@]21C [HYDROXYPROGESTERONE]
Not Active: IC50 [2] | IC50 [3] | IC50 [4] | IC50 [5] | IC50 [6] | IC50 [7] | Ki [7]

COC1=C(OC)C(=O)C(CCCCCCCCCCO)=C(C)C1=O [IDEBENONE]
Not Active: IC50 [2] | IC50 [3] | IC50 [4] | IC50 [5] | IC50 [6] | IC50 [7] | Ki [7]

O=c1cc(N2CCOCC2)oc2c(-c3ccccc3)cccc12 [LY-294002]
Not Active: IC50 [1] | Ki [1] | IC50 [3] | IC50 [8] | Ki [8] | IC50 [4] | IC50 [5] | IC50 [6] | IC50 [7] | Ki [7]

O=C(N/N=C/c1ccc([N+](=O)[O-])o1)c1cc([N+](=O)[O-])cc([N+](=O)[O-])c1O [NIFURSOL]
Not Active: IC50 [1] | Ki [1] | IC50 [2] | IC50 [3] | IC50 [4] | IC50 [5] | IC50 [6] | IC50 [7] | Ki [7]

CC(C)NCC(O)COc1cccc2[nH]ccc12 (stereo not given) [PINDOLOL]
Not Active: IC50 [2] | IC50 [3] | IC50 [4] | IC50 [5] | IC50 [6] | IC50 [7] | Ki [7]

CCCNCC(O)COc1ccccc1C(=O)CCc1ccccc1 (stereo not given) [PROPAFENONE]
Not Active: IC50 [2] | IC50 [3] | IC50 [4] | IC50 [5] | IC50 [6] | IC50 [7] | Ki [7]

CC(C)c1cccc(C(C)C)c1O [PROPOFOL]
Not Active: IC50 [2] | IC50 [3] | IC50 [4] | IC50 [5] | IC50 [6] | IC50 [7] | Ki [7]

C[C@@H]1O[C@@H](O[C@@H]2C=C3CC[C@@H]4[C@H](CC[C@]5(C)[C@@H](c6ccc(=O)oc6)CC[C@]45O)[C@@]3(C)CC2)[C@H](O)[C@H](O)[C@H]1O [PROSCILLARIDIN]
Not Active: IC50 [1] | Ki [1] | IC50 [2] | IC50 [3] | IC50 [4] | IC50 [5] | IC50 [6] | IC50 [7] | Ki [7]
